{"source": "paper PMC8583417", "about": "“Evaluation of the Antimicrobial Efficacy of N-Acetyl-L-Cysteine, Rhamnolipids, and Usnic Acid—Novel Approaches to Fight Food-Borne Pathogens” (International Journal of Molecular Sciences, 2021)", "key": {"L. monocytogenes 164": {"tested_on": "L. monocytogenes 164", "assay": "CLSM analysis, biofilm removal (preformed biofilm)", "type": "cell-based, Listeria monocytogenes", "settings": "for Thickness (µm) MICBM80: substance at its MIC", "description": "(§1) Biofilm prevention and removal analyses were performed using previously determined minimum inhibitory and subinhibitory concentrations for metabolic activity (MICBM80, subCBM80; MICMPB80, subCMPB80) of NAC, RLs, and UA specific for each tested strain. Selected concentrations were used to evaluate the inhibition of biofilm formation (biofilm prevention) and the reduction in previously formed biofilms (biofilm removal) for the same set of microorganisms, with the exception of S. Infantis, which was excluded from the analysis due to its inability to form biofilm in the selected microtiter plate. Biofilm prevention and removal were observed using CLSM with specific staining to distinguish between live and membrane-compromised cells. Images were analyzed to evaluate (i). the total volume of the biomass, (ii). ratios of live and membrane-compromised cells, and (iii). to calculate biofilm volume reduction for individual organisms after the respective treatment types. The total biofilm volume was normalized by the area of the well and expressed as an average biofilm thickness. Complete data are provided in Supplementary Materials (Tables S1–S8).\n(§2) At first, bacterial suspensions were cultivated in microtiter plates to produce overnight biofilms (18 h). […] cells were then washed out, and the remaining biofilms were further cultivated for an additional 20 h with selected compounds. Following biofilm cultivation, biomass was observed using CLSM with live/membrane-compromised cell staining. Biomass images from biofilm removal treatments were similar to results from biofilm prevention, where biomass was highly diversified across the bacterial species and strains. Visually, biomass images were fairly consistent within the quadruplicates for each tested organism. Non-treated biofilms of S. aureus contained consistent biomass spread across the well (S. aureus 816) or grown around the edges (S. aureus 1241). […] PI staining identified membrane-compromised cells spread across S. aureus 816 biomass and incorporated in the edge of biomass and/or in the central part of the well (Figure 4B,C). […] Membrane-compromised cells appeared contained around the edges (S. aureus 1241), disturbed across the well (in both strains of L. monocytogenes), or in separated biomass in the central part of the well (in both strains of E. coli when treated with the subinhibitory concentration of RLs) (Figure 4D,E).\n(§3) For both inhibition and reduction of biofilms, overnight cultures from BHI were diluted in TSB + 1% Glc to reach an absorbance of 0.08 to 0.1 at 625 nm. The inoculum (150 µL) was transferred into wells of the 96-well flat-bottomed Ibidiμ-Plate (Ibidi, Gräfelfing, Germany) and mixed with 150 µL of each of the three tested substances in technical quadruplicates, followed by incubation at 37 °C for 24 h. Simultaneously, the prepared bacterial suspensions were inoculated to an additional microtiter plate (200 µL) and allowed to form biofilm overnight (18 h at 37 °C). After the incubation, the content of the well was drained off, and 200 µL of each of the three tested substances was added to the plate, which was then incubated for an additional 20 h. The used concentrations of the substances represented the subinhibitory and minimum inhibitory concentrations for metabolic activity (subCBM80, MICBM80; subCMPB80, MICMPB80). Both setups contained a positive control of the bacterial growth (inoculum mixed with sterile TSB + 1% Glc medium) and a control monitoring microbial contamination (sterile medium). Non-treated wells were used as a positive control for comparison between non-treated and treated biofilm mass.\n(§4) Prior to the imaging, the wells were stained with the LIVE/DEAD® BacLight™ Bacterial Viability Kit (Thermo Fisher Scientific, MA, USA) following the manufacturer’s guidelines and Drago et al.. […]"}, "L. monocytogenes 149": {"tested_on": "L. monocytogenes 149", "assay": "CLSM analysis, biofilm removal (preformed biofilm)", "type": "cell-based, Listeria monocytogenes", "settings": "20 h exposure, mean ± SD; for Thickness (µm) MICBM80: substance at its MIC; for Thickness (µm) subCBM80: substance at subinhibitory concentration", "description": "as §1, §2, §3, §4"}, "S. Infantis S59": {"tested_on": "S. Infantis S59", "assay": "MIC for further growth of biofilm cells, preformed biofilm (A625nm)", "type": "cell-based, Salmonella enterica Infantis", "settings": "for MICBC80: ≥80% inhibition, 18 h preformed biofilm, 20 h with substance", "description": "(§5) Ten concentrations of NAC, RLs, and UA were tested to determine the minimum inhibitory concentration for planktonic growth, and subsequently, the six highest concentrations were applied on preformed biofilms to evaluate the biofilm eradication ability of the compounds. MIC was defined as the lowest substance concentration able to inhibit at least 80% of microbial growth (MICPC80 for planktonic cells, MICBC80 for further growth of biofilm cells), inhibit 80% of metabolic activity (MICBM80 for biofilm metabolic activity, MICMPB80 for metabolic activity of preformed biofilm), prevent biofilm formation by at least 80% (MICBF80 for biofilm formation), or reduce a preformed biofilm by at least 80% (MICBR80 for biofilm reduction). The results of MICs are summarized in Table 1 (planktonic cells) and Table 2 (biofilm-associated cells).\n(§6) The determination of MICs was performed according to Chlumsky et al.. Briefly, 96-well flat-bottomed microtiter plates were inoculated with 75 µL (for biofilm formation) or 100 µL (for preformed biofilm) of bacterial suspension (A625nm 0.08 to 0.1) in technical triplicates and were then carefully mixed with the dilution series of the test substances (24 h cultivation at 25 °C for S. Infantis, 37 °C for other strains) or were directly cultivated to preform biofilms (18 h). For a positive control of bacterial growth, the inoculum was mixed with a pure sterile medium. Furthermore, the sterile medium was included in the plate as a marker of potential microbial contamination. To evaluate planktonic cells growth (MICPC80) and further growth of biofilm cells (MICBC80), the optical density of the content of the microtiter plates was measured spectrophotometrically at 625 nm before and after 24 h (for biofilm formation) of cultivation or before and after additional 20 h incubation with the tested compound (for preformed biofilm). The difference of A625nm was considered as a measure of the ability of cells to grow in the presence of the tested substances. To evaluate the inhibition of biofilm formation (MICBF80) and reduction in preformed biofilms (MICBR80), biomass was quantified using crystal violet staining, and its metabolic activity (MICBM80 and MICMPB80) was estimated by using the MTT (thiazyl tetrazolium bromide, Sigma-Aldrich, USA) reduction assay, both measured spectrophotometrically at 595 nm.\n(§7) All inhibitions were calculated using the formula of Chlumsky et al. below (Equation (1)):(1) A625(595)nm inhibition (%)=A625(595)nm (control) – A625(595)nm(natural substance)/A625(595)nm (control)× 100 where A625(595)nm (control) is the absorbance of bacterial suspension/biofilm itself, and A625(595)nm(natural substance) is the absorbance of the bacterial suspension/biofilm with the added natural substance (NAC, RLs, and UA).\n(§8) When the minimum inhibitory concentration could not be determined, the MIC was established as >the highest tested concentration for NAC, RLs, and UA."}, "S. Infantis S13": {"tested_on": "S. Infantis S13", "assay": "MIC for further growth of biofilm cells, preformed biofilm (A625nm)", "type": "cell-based, Salmonella enterica Infantis", "settings": "for MICBC80: ≥80% inhibition, 18 h preformed biofilm, 20 h with substance", "description": "as §5, §6, §7, §8"}, "[1]": {"settings": "preformed biofilm, 20 h exposure, mean ± SD"}}, "data": [{"smiles": "CC(=O)N[C@@H](CS)C(=O)O", "note": "[NAC, N-Acetyl-L-cysteine]", "values": [{"measurement": "proportion of membrane-compromised cells", "setting": "L. monocytogenes 164; 20 h, MIC and subinhibitory concentration", "value": "up to 20%"}, {"measurement": "Thickness (µm) MICBM80", "setting": "L. monocytogenes 164; [1]", "value": "345 ± 62", "unit": "µm"}, {"measurement": "Thickness (µm) subCBM80", "setting": "L. monocytogenes 164; preformed biofilm, 20 h exposure, substance at subinhibitory concentration, mean ± SD", "value": "335 ± 23.1", "unit": "µm"}, {"measurement": "Thickness (µm) MICBM80", "setting": "L. monocytogenes 149", "value": "338 ± 85.7", "unit": "µm"}, {"measurement": "Thickness (µm) subCBM80", "setting": "L. monocytogenes 149", "value": "332 ± 51.2", "unit": "µm"}, {"measurement": "MICBC80", "setting": "S. Infantis S59", "value": "12,500 µg/mL"}, {"measurement": "MICBC80", "setting": "S. Infantis S13", "value": 6250, "unit": "µg/mL"}]}, {"smiles": "CC(=O)c1c(O)c(C)c(O)c2c1OC1=CC(=O)C(C(C)=O)C(=O)C12C", "note": "(single isomer, unassigned; (+)) [UA, (+)-usnic acid]", "values": [{"measurement": "Thickness (µm) MICBM80", "setting": "L. monocytogenes 164; [1]", "value": "440 ± 60.8", "unit": "µm"}, {"measurement": "Thickness (µm) MICBM80", "setting": "L. monocytogenes 149", "value": "317 ± 62.3", "unit": "µm"}, {"measurement": "Thickness (µm) subCBM80", "setting": "L. monocytogenes 149", "value": "276 ± 26.8", "unit": "µm"}, {"measurement": "maximal achieved inhibition (MICBC80 not reached)", "setting": "S. Infantis S59; within tested concentrations", "value": 31, "unit": "%"}, {"measurement": "MICBC80", "setting": "S. Infantis S59", "value": "> 31.3", "unit": "µg/mL"}, {"measurement": "maximal achieved inhibition (MICBC80 not reached)", "setting": "S. Infantis S13; within tested concentrations", "value": 33, "unit": "%"}, {"measurement": "MICBC80", "setting": "S. Infantis S13", "value": "> 31.3", "unit": "µg/mL"}]}]}
